# Measurements from article PMC9721025, “Pharmacokinetic study of the main components of Tanreqing capsules and Tanreqing injections in beagles by liquid chromatography–tandem mass spectrometry” (Chinese Medicine, 2022).
# Like-named read-outs stand apart in the source and are kept apart here.
# How the values were obtained:
# [1] = Pharmacokinetics in beagles, single-dose regimen of TRQI (i.v.) or TRQC (oral), plasma LC-MS/MS; format: in vivo, beagle; conditions: for AUC(0-t) / Cmax / Tmax / half-life: beagle, dog, plasma; for AUC(0-t): read-out: AUC0–24 h; for Cmax / Tmax / half-life: mean of six beagles
# Protocol: (§1) 100 μL plasma sample was drawn and transferred to 1.5 mL centrifuge tube prior to 300 μL protein precipitant (3:1 [v/v] methanol/acetonitrile, containing 0.1% formic acid and 100 ng/mL IS) was added, and then the sample was vortex-mixed for 3 min. The mixture was centrifuged at 20,000 ×g for 10 min, and 100 μL supernatant was transferred to the injection vial and analyzed directly by LC–MS/MS.
# (§2) This study was carried out in six beagles (three males and three females, 9.0–12.0 kg each), that were purchased from Junda Pet Hospital (Shanghai, China). This experimental protocol was approved by the Experimental Animal Ethics Committee of the Naval Military Medical University (Shanghai, China).
# The six healthy beagles were divided into two groups: beagles 1–3 were all male and were assigned to the first group, and beagles 4–6 were all females and assigned to the second group. The two-cycle, crossover study was designed with a 7-day wash out period. For the single-administration process, the dogs in the first group were injected intravenously with 0.5 mL/kg TRQI (one-third of the normal daily dose), and blood samples were collected at 0, 5, 10, 15, 20, 30, and 45 min and then at 1, 2, 4, 6, 8, 12, and 24 h (a total of 14 time points) after injection. For each blood sample, 1 mL of blood was collected from the forelimb vein in heparin-treated tubes. The dogs in the second group were orally administrated 0.09 g/kg TRQC (one-third of the normal daily dose, and blood samples were collected in the same manner at 0, 10, 20, and 40 min and then at 1, 1.5, 2, 2.5, 3, 4, 6, 8, 12, and 24 h (a total of 14 time points). All blood samples were centrifuged at 4000 × g for 5 min, and each supernatant was collected and aliquoted. After a 7-day wash out period, the dogs in each group were administrated the other Tanreqing formulation in a crossover design, and blood samples were collected and processed in the same way.
# (§3) All data obtained were analyzed using Drug and Statistics (DAS) 2.0 software (Chinese Society of Pharmacology), and a non-compartment analysis was used to calculate plasma pharmacokinetic parameters. The principal components of TRQI and TRQC were compared with an analysis of variance (ANOVA) and/or a two-tailed student-t test.
# [2] = Pharmacokinetics in beagles, multiple-dose regimen (once per day for 7 days) of TRQI or TRQC, plasma LC-MS/MS; format: in vivo; conditions: beagle, dog; for Cmax at 7 days / Tmax at 7 days / half-life at 7 days: mean
# Protocol: as §1, §2
# After the end of the single-dose experiment, the dogs in group one were given 0.5 mL/kg injection of TRQI once per day for 7 days following the wash out period, and the dogs in group two were given 0.09 g/kg TRQC once per day for 7 days. After the seventh administration, blood samples were collected at 0, 10, 20, and 40 min and then at 1, 1.5, 2, 2.5, 3, 4, 6, 8, 12, and 24 h (a total of 14 time points) and were processed as described in “Single-dose regimen” section. The resulting plasma samples were used to determine the steady-state plasma concentration of TRQI and TRQC. A crossover study was again carried out in both groups, as described in “Single-dose regimen” section, after a 7-day washing period.
# as §3
# [3] = Stability of analytes in dog plasma (QC samples); format: in vitro ADME
# Protocol: The stock solutions of all analytes were further mixed and diluted with methanol/water (10:90, v/v) solution to prepare the working solutions. […] The QC samples were stored in a refrigerator at – 80 °C until retrieval (see Additional file 1). The stability, which includes short-term stability (6 h at room temperature), long-term stability (− 80 °C for 30 days in the refrigerator), and freeze–thaw stability (three cycles from − 80 °C to room temperature), were assessed using QC samples at three concentration levels in three replicates. […] Similarly, there were no obvious effects on the analysis results of the samples with respect to short-term stability or long-term storage.
# [4] = cited from earlier work; for t1/2: Tanreqing injection
# [5] = both sexes, iv, single i.v. dose of TRQI 0.5 mL/kg
# [6] = both sexes, single oral dose of TRQC 0.09 g/kg
# [7] = both sexes, iv, TRQI 0.5 mL/kg once per day for 7 days
# [8] = both sexes, po, TRQC 0.09 g/kg once per day for 7 days
# [9] = n = 3, high QC: nominal 200 ng/mL baicalin, 1000 ursodeoxycholic acid, 100 chenodeoxycholic acid and chlorogenic acid
# [10] = n = 3, low QC: nominal 4 ng/mL baicalin, 20 ursodeoxycholic acid, 2 chenodeoxycholic acid and chlorogenic acid
# [11] = n = 3, middle QC: nominal 20 ng/mL baicalin, 100 ursodeoxycholic acid, 10 chenodeoxycholic acid and chlorogenic acid
smiles,measurement,setting,value
"O=C(O)[C@H]1O[C@@H](Oc2cc3oc(-c4ccccc4)cc(=O)c3c(O)c2O)[C@H](O)[C@@H](O)[C@@H]1O [Baicalin, baicalin]",oral availability,[1]; TRQC in dogs,small
same,AUC(0-t),"[1]; both sexes, iv, 0.5 mL/kg, single TRQI 0.5 mL/kg, Mean",44.4 ng·h/mL
same,Cmax,[1]; [5],1050 ng/mL
same,Tmax,[1]; [5],0.08 h
same,half-life,[1]; [5],6.75 h
same,AUC(0-t),"[1]; both sexes, po, 0.09 g/kg, single TRQCs 0.09 g/kg, Mean",14.1 ng·h/mL
same,Cmax,[1]; [6],4.79 ng/mL
same,Tmax,[1]; [6],3.78 h
same,half-life,[1]; [6],4.97 h
same,AUC(0-t),"[1]; female, iv, 0.5 mL/kg, single TRQI 0.5 mL/kg, beagle No 4",161 ng·h/mL
same,AUC(0-t),"[1]; female, iv, 0.5 mL/kg, single TRQI 0.5 mL/kg, beagle No 5",1.98 ng·h/mL
same,AUC(0-t),"[1]; female, iv, 0.5 mL/kg, single TRQI 0.5 mL/kg, beagle No 6",39.9 ng·h/mL
same,AUC(0-t),"[1]; female, po, 0.09 g/kg, single TRQCs 0.09 g/kg, beagle No 4",15.6 ng·h/mL
same,AUC(0-t),"[1]; female, po, 0.09 g/kg, single TRQCs 0.09 g/kg, beagle No 5",1.15 ng·h/mL
same,AUC(0-t),"[1]; female, po, 0.09 g/kg, single TRQCs 0.09 g/kg, beagle No 6",3.38 ng·h/mL
same,AUC(0-t),"[1]; male, iv, 0.5 mL/kg, single TRQI 0.5 mL/kg, beagle No 1",44.5 ng·h/mL
same,AUC(0-t),"[1]; male, iv, 0.5 mL/kg, single TRQI 0.5 mL/kg, beagle No 2",18.7 ng·h/mL
same,AUC(0-t),"[1]; male, iv, 0.5 mL/kg, single TRQI 0.5 mL/kg, beagle No 3",0.47 ng·h/mL
same,AUC(0-t),"[1]; male, po, 0.09 g/kg, single TRQCs 0.09 g/kg, beagle No 1",16 ng·h/mL
same,AUC(0-t),"[1]; male, po, 0.09 g/kg, single TRQCs 0.09 g/kg, beagle No 2",36.4 ng·h/mL
same,AUC(0-t),"[1]; male, po, 0.09 g/kg, single TRQCs 0.09 g/kg, beagle No 3",11.8 ng·h/mL
same,AUC(0-inf),"[2]; both sexes, iv, 0.5 mL/kg, TRQI 0.5 mL/kg for 7 days, Mean",548 ng·h/mL
same,AUC(0-t),"[2]; both sexes, iv, 0.5 mL/kg, TRQI 0.5 mL/kg for 7 days, Mean, read-out: AUC0–24 h",395 ng·h/mL
same,Cmax at 7 days,[2]; [7],1370 ng/mL
same,Tmax at 7 days,[2]; [7],0.11 h
same,half-life at 7 days,[2]; [7],5.54 h
same,AUC(0-inf),"[2]; both sexes, po, 0.09 g/kg, TRQC 0.09 g/kg for 7 days, Mean",142 ng·h/mL
same,AUC(0-t),"[2]; both sexes, po, 0.09 g/kg, TRQC 0.09 g/kg for 7 days, Mean, read-out: AUC0–24 h",107 ng·h/mL
same,Cmax at 7 days,[2]; [8],12.2 ng/mL
same,Tmax at 7 days,[2]; [8],7.25 h
same,half-life at 7 days,[2]; [8],12.1 h
same,AUC(0-inf),"[2]; female, iv, 0.5 mL/kg, TRQI 0.5 mL/kg for 7 days, beagle No. 4",670 ng·h/mL
same,AUC(0-t),"[2]; female, iv, 0.5 mL/kg, TRQI 0.5 mL/kg for 7 days, beagle No. 4, read-out: AUC0–24 h",527 ng·h/mL
same,AUC(0-inf),"[2]; female, iv, 0.5 mL/kg, TRQI 0.5 mL/kg for 7 days, beagle No. 5",711 ng·h/mL
same,AUC(0-t),"[2]; female, iv, 0.5 mL/kg, TRQI 0.5 mL/kg for 7 days, beagle No. 5, read-out: AUC0–24 h",526 ng·h/mL
same,AUC(0-inf),"[2]; female, iv, 0.5 mL/kg, TRQI 0.5 mL/kg for 7 days, beagle No. 6",1290 ng·h/mL
same,AUC(0-t),"[2]; female, iv, 0.5 mL/kg, TRQI 0.5 mL/kg for 7 days, beagle No. 6, read-out: AUC0–24 h",865 ng·h/mL
same,AUC(0-inf),"[2]; female, po, 0.09 g/kg, TRQC 0.09 g/kg for 7 days, beagle No. 4",88.3 ng·h/mL
same,AUC(0-t),"[2]; female, po, 0.09 g/kg, TRQC 0.09 g/kg for 7 days, beagle No. 4, read-out: AUC0–24 h",68 ng·h/mL
same,AUC(0-inf),"[2]; female, po, 0.09 g/kg, TRQC 0.09 g/kg for 7 days, beagle No. 5",398 ng·h/mL
same,AUC(0-t),"[2]; female, po, 0.09 g/kg, TRQC 0.09 g/kg for 7 days, beagle No. 5, read-out: AUC0–24 h",245 ng·h/mL
same,AUC(0-inf),"[2]; female, po, 0.09 g/kg, TRQC 0.09 g/kg for 7 days, beagle No. 6",44.3 ng·h/mL
same,AUC(0-t),"[2]; female, po, 0.09 g/kg, TRQC 0.09 g/kg for 7 days, beagle No. 6, read-out: AUC0–24 h",32.5 ng·h/mL
same,AUC(0-inf),"[2]; male, iv, 0.5 mL/kg, TRQI 0.5 mL/kg for 7 days, beagle No. 1",45.8 ng·h/mL
same,AUC(0-t),"[2]; male, iv, 0.5 mL/kg, TRQI 0.5 mL/kg for 7 days, beagle No. 1, read-out: AUC0–24 h",42.6 ng·h/mL
same,AUC(0-inf),"[2]; male, iv, 0.5 mL/kg, TRQI 0.5 mL/kg for 7 days, beagle No. 2",534 ng·h/mL
same,AUC(0-t),"[2]; male, iv, 0.5 mL/kg, TRQI 0.5 mL/kg for 7 days, beagle No. 2, read-out: AUC0–24 h",370 ng·h/mL
same,AUC(0-inf),"[2]; male, iv, 0.5 mL/kg, TRQI 0.5 mL/kg for 7 days, beagle No. 3",37.6 ng·h/mL
same,AUC(0-t),"[2]; male, iv, 0.5 mL/kg, TRQI 0.5 mL/kg for 7 days, beagle No. 3, read-out: AUC0–24 h",36.8 ng·h/mL
same,AUC(0-inf),"[2]; male, po, 0.09 g/kg, TRQC 0.09 g/kg for 7 days, beagle No. 1",80.5 ng·h/mL
same,AUC(0-t),"[2]; male, po, 0.09 g/kg, TRQC 0.09 g/kg for 7 days, beagle No. 1, read-out: AUC0–24 h",79.6 ng·h/mL
same,AUC(0-inf),"[2]; male, po, 0.09 g/kg, TRQC 0.09 g/kg for 7 days, beagle No. 2",164 ng·h/mL
same,AUC(0-t),"[2]; male, po, 0.09 g/kg, TRQC 0.09 g/kg for 7 days, beagle No. 2, read-out: AUC0–24 h",149 ng·h/mL
same,AUC(0-inf),"[2]; male, po, 0.09 g/kg, TRQC 0.09 g/kg for 7 days, beagle No. 3",74.3 ng·h/mL
same,AUC(0-t),"[2]; male, po, 0.09 g/kg, TRQC 0.09 g/kg for 7 days, beagle No. 3, read-out: AUC0–24 h",69.7 ng·h/mL
same,Freeze-thaw stability (3 cycles) Mean ± S.D. concentration,[3]; [9],202.81 ± 10.87 ng/mL
same,Long-term stability (30 days at – 80 °C) Mean ± S.D. concentration,[3]; [9],175.01 ± 4.57 ng/mL
same,Short-term stability (6 h at room temperature) Mean ± S.D concentration,[3]; [9],182.83 ± 7.72 ng/mL
same,Freeze-thaw stability (3 cycles) Mean ± S.D. concentration,[3]; [10],3.97 ± 0.36 ng/mL
same,Long-term stability (30 days at – 80 °C) Mean ± S.D. concentration,[3]; [10],3.50 ± 0.07 ng/mL
same,Short-term stability (6 h at room temperature) Mean ± S.D concentration,[3]; [10],4.01 ± 0.31 ng/mL
same,Freeze-thaw stability (3 cycles) Mean ± S.D. concentration,[3]; [11],17.88 ± 0.92 ng/mL
same,Long-term stability (30 days at – 80 °C) Mean ± S.D. concentration,[3]; [11],17.47 ± 0.42 ng/mL
same,Short-term stability (6 h at room temperature) Mean ± S.D concentration,[3]; [11],18.43 ± 0.75 ng/mL
same,t1/2,[4]; Hu's study,0.8 h
same,t1/2,[4]; another study,3.6 h
same,clearance rate,"[4]; rat, TRQI",24.3 mL/min/kg
same,volume of distribution,"[4]; rat, TRQI",1.07 L/kg
